The nature of one data set: Property Forecast Index. In kind it is physicochemical. Conditions: number of aromatic rings + ChromLogD at pH 7.4.
Data set [1] deals with T. cruzi culture derived trypomastigotes, strain Silvio X10/7 A1. Put plainly: trypomastigote assay. Type of data set: cell-based. The following applies: Trypanosoma cruzi. As to the method:
Trypomastigote assays using strain Silvio X10/7 subclone A1 were carried out as described in ([19]). Parasite culture and potency determinations for panel of strains were performed as in ([19]). Strains used were M6241 clone 6 (DTU III), ERA clone 2 (DTU IV), PAH179 clone 5 (DTU V) and CL Brener-Luciferase (PpyRE9h-expressing T. cruzi, same strain that is used in animal model studies ([67])) (DTU VI). […] For Y strain compound exposure time was 3 days. Rate-of-kill assays were carried out as described in ([39]).

Data set [2] has as its system wild-type T. cruzi epimastigotes. In words: epimastigote drug sensitivity assay, wild-type. In kind it is cell-based. The following applies: Trypanosoma cruzi. The method, then: T. cruzi epimastigotes from the Silvio strain (MHOM/BR/78/Silvio; clone X10/7A) were grown at 28°C in RTH/FBS medium ([80]).
T. cruzi epimastigote assays carried out as described previously ([43]).

The next data set concerns the target T. cruzi CYP51 (Trypanosoma cruzi, UniProt Q7Z1V1). Put plainly: T. cruzi CYP51 biochemical assay.
Data set [3] concerns intracellular T. cruzi amastigotes, strain Silvio X10/7 A1. In words: intracellular T. cruzi amastigote potency assay. Type of data set: cell-based. Conditions: Trypanosoma cruzi.
A short description of data set [4]: intrinsic clearance in human liver microsomes. In kind it is in vitro ADME. Conditions: for half-life at 0.5 μM: read-out: T 1/2 human. The method, then:
Immediately at time zero and at several serial times points up to 30 min, an aliquot of the incubation mixture was removed and mixed with acetonitrile to stop the reaction. Internal standard was added to all samples, the samples centrifuged to sediment precipitated protein and the plates then sealed prior to HPLC-MS/MS analysis. Metabolic stability expressed as a percentage of the parent molecule was calculated using the peak area ratio (compound peak area/internal standard peak area) of different compounds remaining after each incubation time compared to time zero of the incubation. The half-life (t1/2) was calculated using the following equation: t1/2=−ln(2)/k, where k is the turn-over rate constant of the ln (percent remaining) vs time regression.
CLint was calculated from the half-life (t1/2) using the following equations:
CLint (ml/min/g liver) = (0.693/(t1/2) x (ml of incubation/mg microsomal protein) x (mg microsomal protein/g liver).

Data set [5] concerns chronic T. cruzi infection (CL Brener) in BALB/c mice. In words: bioluminescent mouse model of chronic Chagas disease. In kind it is in vivo, Trypanosoma cruzi. The following applies: 5 days.
Another data set concerns HepG2 cells. In words: Seahorse MST (mitochondrial stress test), oxygen consumption rate. Type of data set: cell-based. Conditions: lowest concentration reducing OCR >15% vs DMSO. As to the method: To measure the Oxygen Consumption Rate (OCR) in cells following compound treatment, the Seahorse XFe96 Extracellular Flux Analyser (Agilent) was used ([69]). HepG2 cells were maintained in DMEM medium (Invitrogen #11966-025) supplemented with 10 mM galactose, 1 mM sodium pyruvate, 5 mM HEPES, 2 mM GlutaMAX, 10% fetal bovine serum and 50 μg/ml gentamycin. Cells were maintained in a 37 °C, 5% CO2 humidified atmosphere. The measurement of OCR was performed as previously described ([70], [71]) with minor modifications. Briefly, HepG2 cells were seeded in an XF96-well plate at 14000 cells per 100 μl cell culture medium per well and incubated in a 37 °C, 5% CO2 humidified atmosphere for 24 hours. Following incubation, the culture medium was replaced with 175 μl pre-warmed, serum-free XF base assay medium (Agilent), supplemented with 2 mM L-glutamine, 1 mM sodium pyruvate and 10 mM galactose (pH 7.4) and incubated at 37 °C for one hour. Test compounds (compound 3 and 4) were maintained in DMSO and a four-point dose response (final concentrations 10, 20, 40 and 80 μM), plus 0.4% DMSO control, were diluted to 8× concentration in XF assay medium and 25 μL was loaded into Port A of the XF Assay Cartridge. The mito-stress test components oligomycin (1 μM final), carbonyl cyanide-4-(trifluoromethoxy)-phenylhydrazon [FCCP] […]

The target of data set [6] is T1, Human complex III (bc1), mitochondria from THP-1 (Homo sapiens, UniProt P00156).
T1 construct: Preparation of mitochondria from a human cell line (THP-1); endogenous in cells; host or cells: THP-1 (human) mitochondria
In words: human complex III inhibition assay. In kind it is biochemical. The method, then: Preparation of mitochondria from a human cell line (THP-1) was performed following published procedure ([72]). The protocol for the assay has been described in ([73]).

Where [7] appears, read: read-out: Trypomastigotes pEC50 (converted).
Where [8] appears, read: Table 2, wild-type epimastigotes, read-out: EC50 WT.
[9] abbreviates: intracellular amastigotes Silvio X10/7 A1, 96 h, ± SD, min. three experiments, read-out: Amastigotes pEC50 (converted).
Setting [10] is: 200.00 µM, read-out: Average % inhibition of human bc1.

One may read the IC50 as the midpoint of a concentration-inhibition curve. High values mean lower potency, low ones higher potency. What is called inhibition is the change of the read-out against control, counted positive when it falls.

“And” between values parts separate entries of the source, which are not always exact repeats. Equal entries are not always repeated. Where two headings read alike, the source gives them in different places.

Sequence of T. cruzi CYP51 (Q7Z1V1 whole entry): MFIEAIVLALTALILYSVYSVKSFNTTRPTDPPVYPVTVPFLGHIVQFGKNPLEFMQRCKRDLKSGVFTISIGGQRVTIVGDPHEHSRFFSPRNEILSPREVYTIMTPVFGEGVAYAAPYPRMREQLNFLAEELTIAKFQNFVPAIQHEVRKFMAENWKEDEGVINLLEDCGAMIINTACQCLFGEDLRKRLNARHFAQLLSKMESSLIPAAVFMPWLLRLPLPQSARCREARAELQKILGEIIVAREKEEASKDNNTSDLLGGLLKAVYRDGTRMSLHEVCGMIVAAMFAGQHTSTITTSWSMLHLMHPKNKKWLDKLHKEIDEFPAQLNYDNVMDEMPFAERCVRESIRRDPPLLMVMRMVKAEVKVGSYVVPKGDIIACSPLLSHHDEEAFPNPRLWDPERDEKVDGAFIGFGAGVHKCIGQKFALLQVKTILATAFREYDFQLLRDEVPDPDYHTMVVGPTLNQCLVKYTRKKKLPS

Take `COc1cc(F)ccc1-c1c(C)[nH]c2nc(N)nc(C)c12` [Compound 2, 5-(4-Fluoro-2-methoxyphenyl)-4,6-dimethyl-7H-pyrrolo[2,3-d]pyrimidin-2-amine]: the PFI in the data set “Property Forecast Index” is on record as 6.4. Also, the EC50 in data set [1] (read-out: Trypomastigotes EC50) is 30 nM; in data set [1] (setting [7]) it was 31.6 nM; in data set [2] (setting [8]), 33 ± 2 nM; in [3] (setting [9]) it was 50.1 nM; in [3] (read-out: Amastigotes EC50), 50 nM. Also, at T. cruzi CYP51, the IC50 is more than 100000 nM. The compound further came in with a Cl int human in data set [4] of 0.6 ml/min/g liver. Besides, the half-life at 0.5 μM in data set [4] turned out to be 1.6 h.

Regarding `O=C(Cn1ccnc1[N+](=O)[O-])NCc1ccccc1` [Benznidazole, reference compound], the PFI in the data set “Property Forecast Index” was found to be 4.3. In addition, the EC50 was 4000 nM in [1] (read-out: Trypomastigotes EC50), 3980 nM in data set [1] (setting [7]), 2000 nM in data set [3] (setting [9]) and 2000 nM in data set [3] (read-out: Amastigotes EC50). Further, the “95% confidence interval for no-relapse” value in [5] (Fig. 3, BNZ 30 mg/kg qd, Adjusted Wald) is reported as 0.01 − 0.58; in data set [5] (Fig. 6, BNZ 30 mg/kg qd), 0.06 − 0.8.

As for `COc1ccc(-c2c(C)[nH]c3nc(N)nc(C)c23)c(OC)c1` [Compound 4, 5-(2,4-Dimethoxyphenyl)-4,6-dimethyl-7H-pyrrolo[2,3-d]pyrimidin-2-amine], the PFI in the data set “Property Forecast Index” is listed as 6.1. Further, the EC50 is 50 nM in data set [1] (read-out: Trypomastigotes EC50); 50.1 nM in data set [1] (setting [7]); 88 ± 3 nM in data set [2] (setting [8]); 79.4 nM in [3] (setting [9]); 80 nM in [3] (read-out: Amastigotes EC50); more than 200000 nM in [6]. The “Seahorse MST, HepG2, LEC” value in the data set with HepG2 cells is more than 80 µM. Also, the IC50 against T. cruzi CYP51 was more than 100000 nM. In addition, the “% inhibition of human bc1, individual replicates” value (from here on “% inhibition of human bc1”) was -12.21% and 6.38% in [6] (0.09 µM); -0.73% and 8.86% and -14.09% in data set [6] (0.27 µM); -0.42% and -1.05% and -3.03% in data set [6] (0.82 µM); -7.80% and 0.71% and -1.55% in [6] (2.47 µM); 20.02% and -3.97% and 5.85% in data set [6] (7.41 µM); 11.11% and -1.32% and 9.84% in data set [6] (22.22 µM). Also, the “% inhibition of human bc1” value in data set [6] (66.67 µM) is 21.01% and 18.54% and -10.78%; in data set [6] (200.00 µM) it was 5.17% and 18.62% and -0.60%. For the same compound, the inhibition at 0.09 µM in [6] (0.09 µM) was -2.92%. Further, the inhibition at 0.27 µM in [6] (0.27 µM) is -1.99%. In addition, in [6] (0.82 µM), the inhibition at 0.82 µM is -1.5%. Besides, the inhibition at 2.47 µM in data set [6] (2.47 µM) is -2.88%. Besides, the inhibition at 7.41 µM in data set [6] (7.41 µM) was 7.3%. Further, in data set [6] (22.22 µM), the inhibition at 22.22 µM came out at 6.55%. Moreover, the inhibition at 66.67 µM in data set [6] (66.67 µM) is 9.59%. In addition, the inhibition at 200 µM in data set [6] (setting [10]) amounted to 7.73%. In data set [5] (Fig. 6, compound 4 50 mg/kg bid), the “95% confidence interval for no-relapse” value is 0.01 − 0.58. For the same compound, in [4], the Cl int human is on record as 0.8 ml/min/g liver. The half-life at 0.5 μM in [4] turned out to be 1.1 h.

Regarding `COc1cc(Cl)ccc1-c1c(C)[nH]c2nc(N)nc(C)c12` [Compound 3, 5-(4-Chloro-2-methoxyphenyl)-4,6-dimethyl-7H-pyrrolo[2,3-d]pyrimidin-2-amine], the PFI in the data set “Property Forecast Index” was 7.2. Further, the EC50 in data set [1] (read-out: Trypomastigotes EC50) was 10 nM; in data set [1] (setting [7]), 12.6 nM; in data set [2] (read-out: EC50 wild-type), 4.6 ± 0.2 nM; in data set [2] (read-out: EC50 wild-type epimastigotes) it was 11.3 ± 0.5 nM; in data set [2] (setting [8]), 6 ± 0.2 nM; in data set [3] (setting [9]) it was 10 nM. Further, in [3] (read-out: Amastigotes EC50), the EC50 worked out at 10 nM. The “Seahorse MST, HepG2, LEC” value in the data set with HepG2 cells stood at 80 µM. Besides, the IC50 on T. cruzi CYP51 is more than 100000 nM. For the same compound, the “% inhibition of human bc1” value in data set [6] (0.09 µM) was -102.79% and -0.39% and 23.45% and -1.32% and -77.48% and 6.58%; in [6] (0.27 µM) it was -31.71% and -5.91% and 16.57% and 7.05% and 0.38% and 2.42%; in [6] (0.82 µM) it was -55.04% and -6.88% and 19.61% and 6.94% and 1.93% and 10.74%; in data set [6] (2.47 µM), -19.11% and -13.68% and 7.11% and 15.66% and -8.81% and 14.23%; in data set [6] (7.41 µM), -1.93% and 0.10% and 21.95% and 17.90% and 0.73% and -3.46%; in [6] (22.22 µM), -14.09% and -16.93% and 21.42% and 11.31% and -5.13%. In addition, the “% inhibition of human bc1” value in data set [6] (66.67 µM) was -178.30% and 13.25% and 22.71% and -32.39% and -2.98% and 16.87%; in [6] (200.00 µM) it was 22.88% and 27.88% and 27.19% and -35.32% and 30.21% and 59.63%. The inhibition at 0.09 µM in data set [6] (0.09 µM) is -25.3%. For the same compound, the inhibition at 0.27 µM in data set [6] (0.27 µM) was -1.87%. The inhibition at 0.82 µM in data set [6] (0.82 µM) was -3.78%. Moreover, in data set [6] (2.47 µM), the inhibition at 2.47 µM was -0.76%. The inhibition at 7.41 µM in data set [6] (7.41 µM) came out at 5.88%. Further, in data set [6] (22.22 µM), the inhibition at 22.22 µM is -0.68%. Besides, the inhibition at 66.67 µM in data set [6] (66.67 µM) was -26.8%. Also, the inhibition at 200 µM in data set [6] (setting [10]) was 22.1%; in data set [6] (200 μM, read-out: Human complex III inhibition at 200μM) it was 20%. Besides, the “inhibition of human complex III” value in data set [6] (concentrations up to and including 66.7 μM) is “did not inhibit”. For the same compound, the “95% confidence interval for no-relapse” value in [5] (Fig. 3, compound 3 50 mg/kg bid) is 0.19 − 0.81. The animals relapsed result in [5] (compound 3 monotherapy 50 mg/kg bid, oral) is listed as “three out of six”. In data set [4], the Cl int human is listed as 0.4 ml/min/g liver. Moreover, the half-life at 0.5 μM in [4] was more than 2.32 h.

(Values after paper PMC7615676, “Short-course combination treatment for experimental chronic Chagas disease” (Science translational medicine, 2023).)
